# In US11279733B2, “Peptide antibiotics” (priority 2017, dated 2022):
# Read-outs that look alike come from different tables or passages of the source. Starred links: 1 amine or outer side, 2 acyl side, 3 side chain; linkers in the order of their positions; H or OH if unused. Positions of bridges follow the written chain, without caps; N, C: chain ends. Non-standard residues stand in square brackets, D forms with d. Residues, ends and D or L forms follow the SMILES beside them. *: point of attachment. X10 = CCCCCCC[C@@H](O)CC(=O)N[C@H](CCN)C(=O)NN(CCN[*:2])C(=O)[*:1]; Decanoyl(3R-OH) = CCCCCCC[C@@H](O)CC(=O)*; Igl = N[C@H](C(=O)O)C1Cc2ccccc2C1; dDab = NCC[C@@H](N)C(=O)O; dDap = NC[C@@H](N)C(=O)O; Dab = NCC[C@H](N)C(=O)O
# Assays:
# in vitro = conditions: for CC50 at 24 h: human
# Summary of the method: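 Cells (4000/well, pre-attached 24 h) then received 5 μM resazurin for 2 h, with fluorescence measured at ex 560/em 590.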
# E. coli ATCC 25922 = conditions: ATCC 25922
# Summary of the method: (§1)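 Mid-log cultures grown in Mueller Hinton broth at 37° C were tested by 2-fold broth microdilution at 5×10^5 CFU/mL final. Compounds were dissolved in water and tested over a final range of 32 to 0.015 μg/mL.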
# [1] = tested on: K. pneumoniae GN_106, PmxR; conditions: GN 106, PmxR
# Summary of the method: as §1
# P. aeruginosa ATCC 27853 = conditions: ATCC 27853
# Summary of the method: as §1
# [2] = tested on: P. aeruginosa GN_105, PmxR; conditions: GN 105, PmxR
# Summary of the method: as §1
# [3] = tested on: K. pneumoniae ATCC 700603, MDR; conditions: ATCC 700603
# Summary of the method: as §1
# [4] = tested on: K. pneumoniae GN_102 PmxR; conditions: GN 102 PmxR
# Summary of the method: as §1
# [5] = tested on: S. aureus ATCC 25923, MSSA; conditions: ATCC 25923
# Summary of the method: as §1
# [6] = tested on: K. pneumoniae ATCC BAA-2146, NDM-1 pos; conditions: ATCC BAA-2146
# Summary of the method: as §1
# K. pneumoniae ATCC 13883 = conditions: ATCC 13883
# Summary of the method: as §1
# A. baumannii ATCC 19606 = conditions: ATCC 19606
# Summary of the method: as §1
# A. baumannii GN_093 PmxR = conditions: GN 093 PmxR
# Summary of the method: as §1
# [7] = tested on: P. aeruginosa GN_043, PmxR
# Summary of the method: as §1
SMILES,CC50 at 24 h (in vitro) [µM],"MIC, E. coli ATCC 25922 (E. coli ATCC 25922) [µg/mL]","MIC, P. aeruginosa ATCC 27853 (P. aeruginosa ATCC 27853) [µg/mL]","MIC, K. pneumoniae ATCC 700603, MDR [3] [µg/mL]","MIC, K. pneumoniae ATCC BAA-2146, NDM-1 pos [6] [µg/mL]","MIC, K. pneumoniae ATCC 13883 (K. pneumoniae ATCC 13883) [µg/mL]","MIC, A. baumannii ATCC 19606 (A. baumannii ATCC 19606) [µg/mL]","MIC K. pneumoniae GN_106, PmxR [1] [µg/mL]","MIC P. aeruginosa GN_105, PmxR [2] [µg/mL]",MIC K. pneumoniae GN_102 PmxR [4] [µg/mL],MIC A. baumannii GN_093 PmxR (A. baumannii GN_093 PmxR) [µg/mL],MIC E. coli ATCC 25922 (E. coli ATCC 25922) [µg/mL],MIC P. aeruginosa ATCC 27853 (P. aeruginosa ATCC 27853) [µg/mL],"MIC K. pneumoniae ATCC 700603, MDR [3] [µg/mL]","MIC S. aureus ATCC 25923, MSSA [5] [µg/mL]","MIC K. pneumoniae ATCC BAA-2146, NDM-1 pos [6] [µg/mL]",MIC K. pneumoniae ATCC 13883 (K. pneumoniae ATCC 13883) [µg/mL],MIC A. baumannii ATCC 19606 (A. baumannii ATCC 19606) [µg/mL],also measured
"CCCCCCC[C@@H](O)CC(=O)N[C@H](CCN)C(=O)N[C@H]1CCNC(=O)[C@H](CC(C)C)NC(=O)[C@H](CCN)NC(=O)[C@H](CCN)NC(=O)[C@H](CC(C)C)NC(=O)[C@@H](Cc2ccccc2)NC(=O)[C@H](CCNC(=O)[C@@H](N)CCCNC(=N)N)NC1=O [compound 6655, 3(R)OH-nC9CO-D-Dab-cyc[L-Dab-L-Dab(L-Arg)-D-Phe-L-Leu-L-Dab-L-Dab-L-Leu]] ({Decanoyl(3R-OH)}-[dDab][Dab][Dab](Arg)[dF]L[Dab][Dab]L; lactam 2-C)",> 300,8,4,8,16,32,32,,,,,,,,,,,,"MIC, K. pneumoniae Cl 138-16347-20362, PmxR [1]: >32 µg/mL; MIC, P. aeruginosa PA9704, PmxR [2]: 4 µg/mL; MIC, K. pneumoniae Cl Koprana 10065 0661:1, PmxR [4]: 16 µg/mL; MIC, S. Aureus ATCC 25923, MSSA [5]: 16 µg/mL; MIC, A. baumannii Cl Ptyela 10073 4512:2, PmxR (A. baumannii GN_093 PmxR): >32 µg/mL; MIC, P. aeruginosa FADDI-PA070, PmxR ([7]; Table 5, polymyxin-resistant): 4 µg/mL"
"CCCCCCC[C@@H](O)CC(=O)N[C@H](CCCCN)C(=O)N[C@H]1CCNC(=O)[C@H](CC(C)C)NC(=O)[C@H](CCN)NC(=O)[C@H](CCN)NC(=O)[C@H](CC(C)C)NC(=O)[C@@H](Cc2ccccc2)NC(=O)[C@H](CCN)NC1=O [compound 5381, 3(R)OH-nC9CO-D-Lys-cyc[L-Dab-L-Dab-D-Phe-L-Leu-L-Dab-L-Dab-L-Leu]] ({Decanoyl(3R-OH)}-[dK][Dab][Dab][dF]L[Dab][Dab]L; lactam 2-C)",> 300,8,4,4,8,8,16,4,4,4,8,,,,,,,,"MIC, S. aureus ATCC 25923, MSSA [5]: >32 µg/mL; MIC P. aeruginosa GN_043, PmxR ([7]; Table 6, polymyxin-resistant): 2 µg/mL"
"CCCCCCC[C@@H](O)CC(=O)N[C@H](CN)C(=O)N[C@H]1CCNC(=O)[C@H](Cc2c[nH]c3ccccc23)NC(=O)[C@H](CCCNC(=N)N)NC(=O)[C@H](CCCCN)NC(=O)[C@H](C2Cc3ccccc3C2)NC(=O)[C@@H](Cc2ccccc2)NC(=O)[C@H](CCN)NC1=O [compound 8888, 3(R)OH-nC9CO-D-Dap-cyc[L-Dab-L-Dab-D-Phe-L-indanylgly-L-Lys-L-Arg-L-Trp]] ({Decanoyl(3R-OH)}-[dDap][Dab][Dab][dF][Igl]KRW; lactam 2-C)",,,,,,,,4,2,4,8,2,4,2,2,2,4,4,"CC50 (in vitro): 67 µM; MIC P. aeruginosa GN_043, PmxR ([7]; polymyxin-resistant): 4 µg/mL"
"CCCCCCC[C@@H](O)CC(=O)N[C@H](CCN)C(=O)NN1CCNC(=O)[C@H](CC(C)C)NC(=O)[C@H](CCN)NC(=O)[C@H](CCN)NC(=O)[C@H](CC(C)C)NC(=O)[C@@H](Cc2ccccc2)NC(=O)[C@H](CCN)NC1=O [compound 9417, 3(R)OH-nC9CO-D-Dab-cyc[(aza-Dab)-L-Dab-D-Phe-L-Leu-L-Dab-L-Dab-L-Leu]] ([Dab][dF]L[Dab][Dab]L; linker N-C via X10)",> 300,,,,,,,,,,,>32,16,>32,8,>32,>32,>32,"MIC K. pneumoniae Cl 183-16357-20352, PmxR [1]: >32 µg/mL; MIC P. aeruginosa PA9704, PmxR [2]: >32 µg/mL; MIC K. pneumoniae Cl Koprana 10065 0661:1 PmxR [4]: >32 µg/mL; MIC A. baumannii Cl Ptyela 10073 4512:2, PmxR (A. baumannii GN_093 PmxR): >32 µg/mL; MIC, P. aeruginosa FADDI-PA070, PmxR ([7]; strain name as in Table 11): >32 µg/mL"
